Article PMC11984924, “Dipeptidic Phosphonates: Potent Inhibitors of Pseudomonas aeruginosa Elastase B Showing Efficacy in a Murine Keratitis Model” (Advanced Science, 2025)
Converted amounts (≈) assume the structure as drawn.

Columns and labels:
[1] = test system: P. aeruginosa strain PA54 keratitis; experiment: Murine Pseudomonas keratitis model; assay type: in vivo, mouse
Protocol: Based on our previous findings on target engagement in a murine pneumonia model in combination with a standard‐of‐care antibiotic,^[ [30] ^] we applied the dipeptide (R)‐30 alone and in combination with the commonly used antibiotic meropenem.^[ [9] ^] The keratitis model was carried out using aged female C57BL/6 mice, as previously published.^[ [37] ^] For infection, 5*10^7 colony forming units (CFUs) of PA54 were topically administered on denuded, mechanically harmed corneas. Treatments with meropenem, (R)‐30, or meropenem in combination with (R)‐30 were performed every 8 h for 72 h (first treatment at 6 h post infection). Each of the in total nine 5 µL‐doses contained 1 mg/mL (R)‐30 and/or 0.5 mg mL^−1 meropenem. Sham‐treated mice received 5 µL‐doses of the vehicle (0.9% saline and 1% DMSO) at the time points indicated above, and uninfected eyes received no treatment. […]
(§1) Animals: The animal experiments were approved by Saarland University’s Animal Welfare Committee (Application number: 17/2021) and conducted in accordance with German and European recommendations and guidelines for the ethical use of animals. The laboratory animals were all C57BL/6N female eight to eleven months old mice. Keeping in specific pathogen-free conditions was provided. Unlimited access to water and show was secured.
(§2) Temperature was closely maintained around 22 °C and relative air humidity around 50%. Light and darkness alternated at twelve-hour intervals. All laboratory animals were purchased from Charles River GmbH, Sulzfeld, Germany.
P. aeruginosa: The P. aeruginosa strain PA54 was employed to induce an experimental bacterial keratitis in the aforementioned C57BL/6N mice. The strain PA54 was isolated from human infections and collected at Saarland University Medical Center’s Institute for Medical Microbiology and Hygienics (IMMH) in 2009. According to Magiorakos et al., PA54 can be classified as multidrug-resistant due to its lacking sensibility to the anti-pseudomonal cephalosporins ceftazidime and cefepime, the anti-pseudomonal fluoroquinolones ciprofloxacin and levofloxacin, the […] fosfomycin, and the aminoglycoside gentamicin.[18] The minimum inhibitory concentration (MIC) of the reserve antibiotic meropenem (meropenem trihydrate, Sigma) was 1 µg/mL (sensitivity limit = 2 µg/mL). The exoU- and exoT-positivity of the PA54 strain, foregrounds its keratitogenic potential.
Inoculum: The P. aeruginosa strain PA54 is routinely grown overnight on blood agar (TrypticaseTM Soy Agar, 5% sheep blood, BD, Heidelberg, Germany) at 37 °C. To obtain a stationary phase cell inoculum, a freshly grown colony was inoculated in tryptic soy broth (TSB; BD, Heidelberg, Germany) and cultured at 37 °C and 150 rounds per minute (rpm) for 16 h.
Then, 2 mL were centrifuged at 13,200 rpm at rt for 2 min, whereupon cells were resuspended in spent medium to an OD600 of 10 (∼1×1010 CFU/mL). Short storage on ice followed, before the infection procedure started.
Infection Procedure: Anesthesia and infection were performed as previously published. Briefly, fentanyl (Hameln Pharma Plus GmbH, Hameln, Germany), midazolam hydrochloride (Midazolam-Hameln, 5 mg/mL, Hameln pharma GmbH, Germany) and medetomidine hydrochloride (Domitor, Orion Corporation, Espoo, Finland) were dissolved in 0.9% NaCl (NaCl 0.9%, Ecotainer 500 mL, B. Braun, Melsungen, Germany), dosed at 0.05 mg/kg, 5 mg/kg and 0.5 mg/kg body weight, respectively, and applied by intraperitoneal injection. Analgesia (Carprofen, 5 mg/kg body weight, Zoetis Deutschland GmbH, Berlin, Germany) was ap plied subcutaneously. Lacrimation was stopped with 10 µL of a 0.6% acetylcysteine solution (Pharmacy of Saarland University Hospitals, Homburg, Germany). Local analgesia (0.5% proxymetacaine hydrochloride, Proparakain -POS Augentropfen, Ursapharm Arzneimitt el GmbH, Saarbrücken, Germany) was eye-dropped and removed after 60 seconds. The blunt […]

[2] = test system: P. aeruginosa strain PA54; experiment: MIC against strain PA54; assay type: cell-based; conditions: Pseudomonas aeruginosa, read-out: minimum inhibitory concentration (MIC)
Protocol: The analysis of fold change and copy numbers was conducted through Microsoft Excel, and the data were graphically represented using GraphPad Prism 9.
Table S17: Primers and probes applied in this study (designs were carried out using Geneious Prime bioinformatics […]
Gene Forward primer Reverse Primer Probe Description […]
lasB GAACA CAG CCAA aeruginosa […]
GACTTC CCTG CCGA sigma factor RpoS […]
rho AAC GTTG TCATCGG termination factor
as §1, §2
P. aeruginosa: The P. aeruginosa strain PA54 was employed to induce an experimental bacterial keratitis in the aforementioned C57BL/6N mice. The strain PA54 was isolated from human infections and collected at Saarland University Medical Center’s Institute for Medical Microbiology and Hygienics (IMMH) in 2009. […]

SMILES: C[C@@H](O)[C@H]1C(=O)N2C(C(=O)O)=C(S[C@@H]3CN[C@H](C(=O)N(C)C)C3)[C@H](C)[C@H]12 [meropenem, reference compound]
- IL‐1β levels in eye homogenate ([1]; day 3 post infection, compared to sham treatment / uninfected eyes): almost on the level of this cytokine seen in uninfected eyes
- KC levels in eye homogenate ([1]; day 3 post infection, compared to uninfected eyes): significantly higher amounts of this chemokine
- reduction of bacterial load in the eye (median) ([1]; day 3 post infection, whole-eye homogenates): 64 fold
- median clinical keratitis score ([1]; day three post infection, topical every 8 h for 72 h, 1 mg/mL (R)-30 and/or 0.5 mg/mL meropenem): 3
- MIC [2]: 1 µg/mL (≈ 2.61 µM)
